From PMC6274419, “Synthesis and Anticancer Activities of Glycyrrhetinic Acid Derivatives” (Molecules, 2016)
Where a name gives a salt, the structure may show the parent alone.

Assays:
MCF-7 cells = experiment: MTT cytotoxicity assay, MCF-7; format: cell-based, human; conditions: MCF7; human breast cancer cell line MCF-7, MTT method, 24 h treatment, mean ± SD; read-out: IC50 MCF-7
Method: (§1) The anticancer activities of compounds 17–24, 41–56 against MCF-7, MDA-MB-231 and hTERT-RPE1 cells were determined in vitro by an MTT assay. […] The data was calculated and presented as IC50 values in Table 1.
(§2) The cytotoxicities of the compounds were evaluated by the MTT assay, which is based on the conversion of MTT to formazan crystals by mitochondrial dehydrogenases. […] The medium was incubated with 20 μL of 5 mg/mL MTT solution for 3 h in a humidified incubator containing 5% CO2. The purple coloured formazan crystals formed in the wells were dissolved in DMSO and their absorbances were measured at 570 nm with a microplate reader. Cell viability was expressed as a percentage of the value in control cultures.

MDA-MB-231 cells = experiment: MTT cytotoxicity assay, MDA-MB-231; format: cell-based, human; conditions: human breast cancer cell line MDA-MB-231, MTT method, 24 h treatment, mean ± SD; read-out: IC50 MDA-MB-231
Method: The data was calculated and presented as IC50 values in Table 1.
as §2

hTERT-RPE1 cells = experiment: MTT cytotoxicity assay, hTERT-RPE1 normal cells; format: cell-based, human; conditions: normal human retinal pigment epithelial cell line hTERT-RPE1, MTT method, 24 h treatment, mean ± SD; read-out: IC50 hTERT-RPE1
Method: as §1, §2

COC(=O)/C=C/c1ccc(OC(=O)[C@@]2(C)CC[C@]3(C)CC[C@]4(C)C(=CC(=O)[C@@H]5[C@@]6(C)CC[C@H](O)C(C)(C)[C@@H]6CC[C@]54C)[C@@H]3C2)cc1 [Compound 19, trans-4-Hydroxycinnamic acid methyl ester 3β-hydroxy-11-oxo-olean-12-en-30-oate] gave an IC50 (MCF-7 cells) of 20.3 ± 1.47 µM, an IC50 (MDA-MB-231 cells) of 14.4 ± 0.52 µM and a melting point of 202 to 205 °C. For the same compound, the IC50 (hTERT-RPE1 cells) was 29.6 ± 1.16 µM.
Work on CCOC(=O)/C=C/c1ccc(OC)c(OC(=O)[C@@]2(C)CC[C@]3(C)CC[C@]4(C)C(=CC(=O)[C@@H]5[C@@]6(C)CC[C@H](O)C(C)(C)[C@@H]6CC[C@]54C)[C@@H]3C2)c1 [Compound 22, Isoferulic acid ethyl ester 3β-hydroxy-11-oxo-olean-12-en-30-oate] yielded an IC50 (MCF-7 cells) of 19.3 ± 1.01 µM, an IC50 (MDA-MB-231 cells) of 9.41 ± 1.03 µM and a melting point of 210 to 213 °C. It also gave an IC50 (hTERT-RPE1 cells) of 21.1 ± 0.73 µM.
In the case of CCOC(=O)/C=C/c1ccc(OC(=O)[C@@]2(C)CC[C@]3(C)CC[C@]4(C)C(=CC(=O)[C@@H]5[C@@]6(C)CC[C@H](O)C(C)(C)[C@@H]6CC[C@]54C)[C@@H]3C2)c(OC)c1 [Compound 18, Ferulic acid ethyl ester 3β-hydroxy-11-oxo-olean-12-en-30-oate], the IC50 (MCF-7 cells) is reported as 22.5 ± 1.26 µM, the IC50 (MDA-MB-231 cells) is reported as 8.14 ± 0.76 µM and the melting point is reported as 224 to 226 °C. For the same compound, the IC50 (hTERT-RPE1 cells) was 22.8 ± 0.97 µM.
COC(=O)/C=C/c1ccc(OC(=O)[C@@]2(C)CC[C@]3(C)CC[C@]4(C)C(=CC(=O)[C@@H]5[C@@]6(C)CC[C@H](O)C(C)(C)[C@@H]6CC[C@]54C)[C@@H]3C2)c(OC)c1 [Compound 17, Ferulic acid methyl ester 3β-hydroxy-11-oxo-olean-12-en-30-oate] gave an IC50 (MCF-7 cells) of 13.6 ± 0.93 µM, an IC50 (MDA-MB-231 cells) of 5.03 ± 0.82 µM and a melting point of 229 to 231 °C. It also gave an IC50 (hTERT-RPE1 cells) of 17.3 ± 1.21 µM.
In the case of COC(=O)/C=C/c1cccc(OC(=O)[C@@]2(C)CC[C@]3(C)CC[C@]4(C)C(=CC(=O)[C@@H]5[C@@]6(C)CC[C@H](O)C(C)(C)[C@@H]6CC[C@]54C)[C@@H]3C2)c1 [Compound 23, trans-3-Hydroxycinnamic acid methyl ester 3β-hydroxy-11-oxo-olean-12-en-30-oate], the IC50 (MCF-7 cells) is reported as 14.9 ± 0.75 µM, the IC50 (MDA-MB-231 cells) is reported as 20.8 ± 1.2 µM and the melting point is reported as 188 to 190 °C. For the same compound, the IC50 (hTERT-RPE1 cells) was 24.1 ± 0.88 µM.
In the case of CCOC(=O)/C=C/c1cccc(OC(=O)[C@@]2(C)CC[C@]3(C)CC[C@]4(C)C(=CC(=O)[C@@H]5[C@@]6(C)CC[C@H](O)C(C)(C)[C@@H]6CC[C@]54C)[C@@H]3C2)c1 [Compound 24, trans-3-Hydroxycinnamic acid ethyl ester 3β-hydroxy-11-oxo-olean-12-en-30-oate], the IC50 (MCF-7 cells) is reported as 19.3 ± 0.98 µM, the IC50 (MDA-MB-231 cells) is reported as 23.2 ± 1.07 µM and the melting point is reported as 173 to 175 °C. For the same compound, the IC50 (hTERT-RPE1 cells) was 22.9 ± 0.68 µM.
CCOC(=O)/C=C/c1ccc(OC(=O)[C@@]2(C)CC[C@]3(C)CC[C@]4(C)C(=CC(=O)[C@@H]5[C@@]6(C)CC[C@H](O)C(C)(C)[C@@H]6CC[C@]54C)[C@@H]3C2)cc1 [Compound 20, trans-4-Hydroxycinnamic acid ethyl ester 3β-hydroxy-11-oxo-olean-12-en-30-oate] showed an IC50 (MCF-7 cells) of 24.4 ± 1.36 µM, an IC50 (MDA-MB-231 cells) of 14.5 ± 0.58 µM and a melting point of 195 to 196 °C. The IC50 (hTERT-RPE1 cells) was 28.4 ± 0.87 µM.
Compound COC(=O)/C=C/c1ccc(OC)c(OC(=O)[C@@]2(C)CC[C@]3(C)CC[C@]4(C)C(=CC(=O)[C@@H]5[C@@]6(C)CC[C@H](OC(=O)[C@@H](N)CC[Se]C)C(C)(C)[C@@H]6CC[C@]54C)[C@@H]3C2)c1 (as salt: hydrochloride) [Compound 50, Isoferulic acid methyl ester 3β-(l-selenomethionine)-11-oxo-olean-12-en-30-oate hydrochloride] has a melting point of 201 to 203 °C.
In the case of COC(=O)/C=C/c1ccc(OC(=O)[C@@]2(C)CC[C@]3(C)CC[C@]4(C)C(=CC(=O)[C@@H]5[C@@]6(C)CC[C@H](OC(=O)[C@@H](N)CCSC)C(C)(C)[C@@H]6CC[C@]54C)[C@@H]3C2)cc1 (as salt: hydrochloride) [Compound 45, trans-4-Hydroxycinnamic acid methyl ester 3β-(l-methionine)-11-oxo-olean-12-en-30-oate hydrochloride], the melting point is reported as 205 to 207 °C.
COC(=O)/C=C/c1ccc(OC)c(OC(=O)[C@@]2(C)CC[C@]3(C)CC[C@]4(C)C(=CC(=O)[C@@H]5[C@@]6(C)CC[C@H](O)C(C)(C)[C@@H]6CC[C@]54C)[C@@H]3C2)c1 [Compound 21, Isoferulic acid methyl ester 3β-hydroxy-11-oxo-olean-12-en-30-oate] showed an IC50 (MCF-7 cells) of 8.54 ± 0.67 µM, an IC50 (MDA-MB-231 cells) of 7.31 ± 0.16 µM and a melting point of 215 to 217 °C. It also gave an IC50 (hTERT-RPE1 cells) of 18.6 ± 0.54 µM.
